“And” between values parts separate entries of the source, which are not always exact repeats. Equal entries are not always repeated. Structures can show the parent of a compound that is named as a salt.
Tests used:
[1] = test system: IL-17 production by CD4 T cells; assay: Human Th17 Assay (IL-17 production by CD4 T cells under Th17 differentiation conditions); format: cell-based; conditions: 3 days, IL-17 in supernatant
Experimental: The human Th17 assay tests the effect of RORγt modulatory compounds on IL-17 production by CD4 T cells under conditions which favor Th17 differentiation. Total CD4^+ T cells were isolated from the peripheral blood mononuclear cells (PBMC) of healthy donors using a CD4^+ T cell isolation kit II, following the manufacturer's instructions (Miltenyi Biotec). […] 50 µL of compound at titrated concentrations in DMSO were added into each well at final DMSO concentration at 0.2%. Cells were incubated for 1 hour, then 50 µL of Th17 cell differentiation medium was added to each well. The final concentrations of antibodies and cytokines (R&D Systems) in differentiation medium were: 3x10^6/mL anti-CD3/CD28 beads (prepared using human T cell activation/expansion kit, Miltenyi Biotec), 10 µg/mL anti-IL4, 10 µg/mL anti-IFNγ, 10 ng/mL […], 10 ng/mL IL23, 50 ng/mL IL6, 3 ng/mL TGFβ and 20 U/mL IL2. Cells were cultured at 37 °C and 5% CO2 for 3 days. Supernatants were collected and the accumulated IL-17 in culture was measured by using MULTI-SPOT® Cytokine Plate following manufacture's instruction (Meso Scale Discovery). The plate was read using Sector Imager 6000, and IL-17 concentration was extrapolated from the standard curve. The IC50s were determined by GraphPad.

[2] = target: T1, wild type human RORγt LBD (Homo sapiens, UniProt P51449); assay: RORγt Reporter Assay (GAL4-RORγt LBD luciferase in HEK293T cells); format: cell-based; conditions: HEK293T cells; for IC50: compounds for 24 hours, read-out: RORγt reporter Assay, IC50; for inhibition at 6 µM: HEK-293T, read-out: RORγt reporter Assay, % inhibition @ 6 µM, @ 6 µM
T1 construct: expressed in transfected cells; host or cells: HEK293T
T1 sequence (P51449 269-508 limits assumed): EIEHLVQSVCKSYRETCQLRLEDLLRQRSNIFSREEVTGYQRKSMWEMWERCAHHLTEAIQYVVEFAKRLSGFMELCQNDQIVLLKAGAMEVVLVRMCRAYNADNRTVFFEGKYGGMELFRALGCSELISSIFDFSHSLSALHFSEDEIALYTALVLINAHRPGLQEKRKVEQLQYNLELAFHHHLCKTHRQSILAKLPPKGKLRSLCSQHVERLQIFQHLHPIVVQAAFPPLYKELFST
In short: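 HEK293T cells transiently co-transfected with GAL4-DBD–human RORγt LBD (or AF2 mutant) and GAL4-responsive firefly luciferase reporter; renilla luciferase normalised transfection and viability. Compounds applied 24 h in 5% lipid-reduced FCS; firefly/renilla ratio plotted against concentration.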

[3] = target: T2, wild type human RORγt ligand binding domain (RORγt LBD) (Homo sapiens, UniProt P51449); assay: RORγt ThermoFluor® Assay (thermal shift, binding affinity); conditions: pH 7.0, estimated from concentration response curves
T2 construct: His-tag (N); TurboTEV protease cleavage site (ENLYFQG) (N); made in house; host or cells: E. coli (pHIS1, modified pET expression vector)
T2 sequence (P51449 269-508 limits assumed): T1 sequence (P51449 269-508 limits assumed)
In short: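 Thermal shift assay on 0.065 mg/mL RORγt LBD with 60 µM 1,8-ANS in 100 mM Hepes pH 7.0, 10 mM NaCl, 2.5 mM GSH, 0.002% Tween-20. Heated at 1 °C/min, fluorescence read at 500 nm.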

| SMILES | IC50 [1] | IC50 [2] | inhibition at 6 µM [2] | Kd [3] | IC50 ([1]; Homo sapiens, CD4+ T, 72 h) | RORγt reporter Assay, % inhibition @ 6 µM [2] | IC50 ([1]; 72 h) |
| --- | --- | --- | --- | --- | --- | --- | --- |
| COc1nc2ccc(C(O)(c3cncn3C)c3cnnn3C)cc2c(Cl)c1-c1cccc(C(F)(F)F)c1 (single isomer, unassigned) [Example 3b, (4-Chloro-2-methoxy-3-(3-(trifluoromethyl)phenyl)quinolin-6-yl)(1-methyl-1H-1,2,3-triazol-5-yl)(1-methyl-1H-imidazol-5-yl)methanol] | 13 nM | 3 nM | 96% | 0.56 nM | – | – | – |
| COc1nc2ccc(C(O)(c3cncn3C)C3CCN(C(C)=O)CC3)cc2c(C#N)c1-c1cccc(C(F)(F)F)c1 (single isomer, unassigned) [Example 2b, 6-((1-Acetylpiperidin-4-yl)(hydroxy)(1-methyl-1H-imidazol-5-yl)methyl)-2-methoxy-3-(3-(trifluoromethyl)phenyl)quinoline-4-carbonitrile] | 2900 nM | 200 nM | 91% | 130 nM | – | – | – |
| COc1nc2ccc(C(O)(c3ccc(C(F)(F)F)nc3)c3cncn3C)cc2c(Cl)c1-c1cncnc1 (stereo not drawn) [Example 10, (4-Chloro-2-methoxy-3-pyrimidin-5-ylquinolin-6-yl)(1-methyl-1H-imidazol-5-yl)[6-(trifluoromethyl)pyridin-3-yl]methanol•TFA] | – | 320 nM | 89% | 200 nM | 1500 nM | – | – |
| Cn1cncc1C(O)(c1ccc(Cl)cc1)c1ccc2nc(Cl)c(-c3ccccc3)c(Cl)c2c1 (stereo not drawn) [Example 65, (4-Chlorophenyl)(2,4-dichloro-3-phenylquinolin-6-yl)(1-methyl-1H-imidazol-5-yl)methanol] | – | – | – | – | – | – | 1800 nM |
| CC(=O)N1CCC(C(O)(c2ccccc2)c2cc(C)c3nc(C#N)c(-c4ccccc4)c(C#N)c3c2)CC1 (single isomer, unassigned) [Example 21c, 6-((1-Acetylpiperidin-4-yl)(hydroxy)(phenyl)methyl)-8-methyl-3-phenylquinoline-2,4-dicarbonitrile] | – | 190 nM | – | 110 nM | 180 nM | 96% | – |
| COc1nc2ccc(C(O)(c3ccc(C(F)(F)F)nc3)c3cncn3C)cc2c(Cl)c1-c1ccc(Cl)s1 (single isomer, unassigned) [Example 14c, [4-Chloro-3-(5-chlorothiophen-2-yl)-2-methoxyquinolin-6-yl](1-methyl-1H-imidazol-5-yl)[6-(trifluoromethyl)pyridin-3-yl]methanol] | 310 nM | 510 nM | – | 140 nM | – | 87% | – |
| Cc1nc(C)c(C(O)(c2ccc3nc(Cl)c(-c4ccccc4)c(Cl)c3c2)c2cncn2C)s1 (stereo not drawn) [Example 68, (2,4-Dichloro-3-phenylquinolin-6-yl)(2,4-dimethylthiazol-5-yl)(1-methyl-1H-imidazol-5-yl)methanol] | – | – | – | – | – | – | 20 nM |
| Cn1cncc1C(O)(c1ccc2nc(C#N)c(-c3ccccc3)c(C#N)c2c1)c1ccccn1 (single isomer, unassigned) [Example 18c, 6-(Hydroxy(1-methyl-1H-imidazol-5-yl)(pyridin-2-yl)methyl)-3-phenylquinoline-2,4-dicarbonitrile] | – | 850 nM | – | 330 nM | – | 95% | – |
| CC(=O)N1CCC(C(O)(c2ccccc2)c2cc(C)c3nc(C#N)c(-c4ccccc4)c(C#N)c3c2)CC1 (single isomer, unassigned) [Example 21b, 6-((1-Acetylpiperidin-4-yl)(hydroxy)(phenyl)methyl)-8-methyl-3-phenylquinoline-2,4-dicarbonitrile] | – | 1600 nM | 87% | 1300 nM | – | – | – |
| CC(=O)N1CCC(C(O)(c2ccc(C(F)(F)F)nc2)c2cc(C)c3nc(C#N)c(-c4ccccc4)c(C#N)c3c2)CC1 (single isomer, unassigned) [Example 27c, 6-((1-Acetylpiperidin-4-yl)(hydroxy)(6-(trifluoromethyl)pyridin-3-yl)methyl)-8-methyl-3-phenylquinoline-2,4-dicarbonitrile] | – | 2100 nM | – | 820 nM | – | 96% | – |
| Cn1cncc1C(O)(c1ccc(C#N)cc1)c1ccc2nc(C(F)(F)F)c(-c3ccccc3)c(C#N)c2c1 (stereo not drawn) [Example 28, 6-((4-Cyanophenyl)(hydroxy)(1-methyl-1H-imidazol-5-yl)methyl)-3-phenyl-2-(trifluoromethyl)quinoline-4-carbonitrile•TFA] | – | 24 nM and ~40 nM | 96% | 46 nM | – | – | – |
| CC(=O)N1CCC(C(O)(c2ccc3nc(C(F)(F)F)c(-c4ccccc4)c(Cl)c3c2)c2cncn2C)CC1 (single isomer, unassigned) [Example 34b, 1-(4-((4-Chloro-3-phenyl-2-(trifluoromethyl)quinolin-6-yl)(hydroxy)(1-methyl-1H-imidazol-5-yl)methyl)piperidin-1-yl)ethanone] | – | 1000 nM | 90% | 450 nM | – | – | – |

More lines, main results first:

| IC50 [1] | IC50 [2] | inhibition at 6 µM [2] | Kd [3] | IC50 ([1]; Homo sapiens, CD4+ T, 72 h) | RORγt reporter Assay, % inhibition @ 6 µM [2] | SMILES | IC50 ([1]; 72 h) |
| --- | --- | --- | --- | --- | --- | --- | --- |
| – | – | – | – | 210 nM | 103% | COc1c(-c2ccccc2)c(Cl)nc2ccc(C(O)(c3cnnn3C)c3cnc(C)n3C)cc12 (single isomer, unassigned) [Example 40c, (2-Chloro-4-metboxy-3-phenylquinolin-6-yl)(1,2-dimethyl-1H-imidazol-5-yl)(1-methyl-1H-1,2,3-triazol-5-yl)methanol] | – |
| – | 34 nM | 103% | 5.2 nM | – | – | Cc1ncc(C(O)(c2ccc3nc(Cl)c(-c4ccccc4)c(Cl)c3c2)c2cnnn2C)n1C (stereo not drawn) [Example 39, (2,4-Dichloro-3-phenylquinolin-6-yl)(1,2-dhnethyl-1H-imidazol-5-yl)(1-methyl-1H-1,2,3-triazol-5-yl)methanol] | – |
| – | 17 nM | 103% | 0.51 nM | – | – | CSc1nc2ccc(C(O)(c3sc(C)nc3C)c3cncn3C)cc2c(SC)c1-c1ccccc1 (stereo not drawn) [Example 42, (2,4-Bis(methylthio)-3-phenylquinolin-6-yl)(2,4-dimethylthiazol-5-yl)(1-methyl-1H-imidazol-5-yl)methanol•TFA] | – |
| – | ~2000 nM | 80% | 930 nM | – | – | Cc1nc(C)c(C(O)(c2ccc3nc(C#N)c(-c4ccccc4)c(C#N)c3c2)c2cnnn2C)s1 (single isomer, unassigned) [Example 47b, 6-((2,4-Dimethylthiazol-5-yl)(hydroxy)(1-methyl-1H-1,2,3-triazol-5-yl)methyl)-3-phenylquinoline-2,4-dicarbonitrile] | – |
| – | 670 nM | 103% | 810 nM | – | – | COCCOc1nc2ccc(C(O)(c3ccc(Cl)cc3)c3cncn3C)cc2c(Cl)c1-c1ccccc1 (stereo not drawn) [Example 48, [4-Chloro-2-(2-methoxyethoxy)-3-phenylquinolin-6-yl](4-chlorophenyl)(1-methyl-1H-imidazol-5-yl)methanol] | – |
| – | 2900 nM | 99% | 14000 nM | – | – | N#Cc1nc2ccc(C(O)(c3ccc(C(F)(F)F)nc3)c3cccc(Cl)c3)cc2cc1-c1ccccc1 (stereo not drawn) [Example 75, 6-((3-Chlorophenyl)(hydroxy)(6-(trifluoromethyl)pyridin-3-yl)methyl)-3-phenylquinoline-2-carbonitrile] | – |
| – | ~3000 nM | 70% | 3300 nM | – | – | Cn1cncc1C(O)(c1ccc2nc(Cl)c(-c3ccccc3)c(Cl)c2c1)c1ncccn1 (stereo not drawn) [Example 55, (2,4-Dichloro-3-phenylquinolin-6-yl)(1-methyl-1H-imidazol-5-yl)pyrimidin-2-ylmethanol] | – |

From patent EP3057950B1, “PHENYL LINKED QUINOLINYL MODULATORS OF ROR-GAMMA-T” (Janssen Pharmaceutica NV, priority 2013, dated 2015)
